Patent US20150045313A1, “Ectoparasiticidal Methods and Formulations” (Eli Lilly and Company, priority 2009, published 2015)
Like-named read-outs stand apart in the source and are kept apart here.

Key:
house flies = tested on: house flies
Experimental: Knockdown and residual efficacy testing and comparison of spinetoram with Elector® for controlling house flies on treated panels.
Test material concentrates of spinetoram (120 g/L suspension concentrate) and spinosad (25 g/L suspension concentrate, Elector) were diluted in distilled water to the desired testing concentrations of either 0.04% (spinetoram only) or 0.08% (both) per label recommended premise spray use rate for controlling house flies with Elector. One square foot panels, obtained from commercial building suppliers, were composed of non-treated plywood, concrete and sheet metal. A second set of both plywood and concrete substrates were primed and painted using exterior grade latex white latex paint. Diluted materials were sprayed onto panels to the point of run-off (approximately 5 seconds per panel). A total of 4 panels were tested per treatment group (n=4). House flies were anesthetized using carbon dioxide and placed inside of plastic containers secured onto panels. There were 4 sub-replicates containers per panel, each container containing 10 mixed-sex adult flies (40 flies per panel). Glucose-saturated dental wicks were secured through a hole in each cup to provide a food and water source for flies. Panels remained upright throughout testing. Fly mortality and moribundity was assessed at post-exposure intervals of 4, 8, 24, 48 and 72 hours immediately following treatment applications and again on a weekly basis for 1 month.

[1] = tested on: ticks (Amblyomma americanum); test: Surrogate Animal bioassay, topical exposure on rats; assay type: in vivo; settings: formulated in ethanol, 48 h
Experimental: Surrogate Animal bioassay/ticks(Amblyomma americanum) and fleas:
Topical exposure—Test materials are formulated in ethanol or acetone at the desired testing concentrations, typically 6% active ingredient or lower. Either doubling or log-dilutions are performed in ethanol to obtain additional testing concentrations (3.0, 0.3, 0.03, and 0.003 mg/cm^3). A tick containment unit is affixed to the back or adult male or female rats, and 0.05 ml of formulated test material is applied topically to the surface area inside of the containment unit. Materials are allowed to dry overnight, after which time 10 unfed dog tick nymphs are placed into each containment unit. A total of 5 rats are normally used for each test concentration. Ticks are allowed to attach and feed on treated animals for 48 h, after which time containment units are opened and live/dead ticks are enumerated. Rats may be co-infested with adult cat fleas at the time of tick infestation to obtain data for topical insecticide activity using the same animal.

[2] = tested on: Lone Star Tick (Amblyomma americanum); test: Cattle Ectoparasiticide Test, single dose whole-body spray against lone star tick; assay type: in vivo
Text: Cattle Ectoparasiticide Test (CET)/Horn Fly (Haematobia irritans) and/or Adult Tick (Amblyomma americanum): Cattle are housed in environmentally controlled rooms, 1 or 2 animals per room that have screened doors and ventilation system to prevent fly escape. Following treatment application, a defined number of horn flies are released into each room (typically at or above economic threshold of 200 flies per animal). After defined periods of time, the numbers of live horn flies remaining on animals are enumerated. If a combination horn fly and tick experiment is conducted, adult lone star ticks are placed into surgical stockinette enclosures that are glued onto the backs of cattle. Cattle are restrained in a modified head gate within environmentally controlled rooms. Horn flies may be enumerated, followed by determination of the numbers of dead ticks inside of containment units. Typically there are 2 containment units per animal and at least 2 animals per treatment group.
A) Single Dose Efficacy Testing and Comparison of Spinetoram with Elector against Lone Star Tick (Amblyomma americanum) Infestations on Cattle. Technical spinetoram was formulated as a 25 g/L suspension concentrate using the same formulatin components as found in Elector. Test material was applied to animals as a whole-body topical spray. Total of two animals per treatment group; each animal harbored ticks inside of 3 containment units (n=3 per animal or n=6 per treatment group). Concentrates (25 g/L) diluted in water; treatment level equivalent to marketed rate for Elector (0.5 g AI per animal).

[3] = 4 Week Residual Activity, Sheet Metal, 400 ppm
[4] = 4 Week Residual Activity, Sheet Metal, 800 ppm
[5] = 4 Week Residual Activity, Unpainted Concrete, 400 ppm
[6] = 4 Week Residual Activity, Unpainted Concrete, 800 ppm
[7] = 4 Week Residual Activity, Unpainted Wood, 400 ppm
[8] = 4 Week Residual Activity, Unpainted Wood, 800 ppm
[9] = Initial Activity, Sheet Metal, 400 ppm
[10] = Initial Activity, Sheet Metal, 800 ppm
[11] = Initial Activity, Unpainted Concrete, 400 ppm
[12] = Initial Activity, Unpainted Concrete, 800 ppm
[13] = Initial Activity, Unpainted Wood, 400 ppm
[14] = Initial Activity, Unpainted Wood, 800 ppm

## Spinetoram
House flies; [3]
  % House Fly Mortality at 4 h: 0%
  % House Fly Mortality at 8 h: 40.6%
  % House Fly Mortality at 24 h: 91.3%
  % House Fly Mortality at 48 h: 97.3%
House flies; [4]
  % House Fly Mortality at 4 h: 0.6%
  % House Fly Mortality at 8 h: 26.3%
  % House Fly Mortality at 24 h: 80.6%
  % House Fly Mortality at 48 h: 96.3%
House flies; [5]
  % House Fly Mortality at 4 h: 4.2%
  % House Fly Mortality at 8 h: 80.0%
  % House Fly Mortality at 24 h: 100%
  % House Fly Mortality at 48 h: 100%
House flies; [6]
  % House Fly Mortality at 4 h: 31.3%
  % House Fly Mortality at 8 h: 98.8%
  % House Fly Mortality at 24 h: 100%
  % House Fly Mortality at 48 h: 100%
House flies; [7]
  % House Fly Mortality at 4 h: 0.6%
  % House Fly Mortality at 8 h: 0.6%
  % House Fly Mortality at 24 h: 4.7%
  % House Fly Mortality at 48 h: 12.1%
House flies; [8]
  % House Fly Mortality at 4 h: 0%
  % House Fly Mortality at 8 h: 0%
  % House Fly Mortality at 24 h: 22.6%
  % House Fly Mortality at 48 h: 61.2%
House flies; [9]
  % House Fly Mortality at 4 h: 19.7%
  % House Fly Mortality at 8 h: 91.8%
  % House Fly Mortality at 24 h: 100%
  % House Fly Mortality at 48 h: 100%
House flies; [10]
  % House Fly Mortality at 4 h: 31.5%
  % House Fly Mortality at 8 h: 100%
  % House Fly Mortality at 24 h: 100%
  % House Fly Mortality at 48 h: 100%
House flies; [11]
  % House Fly Mortality at 4 h: 45.4%
  % House Fly Mortality at 8 h: 98.6%
  % House Fly Mortality at 24 h: 100%
  % House Fly Mortality at 48 h: 100%
House flies; [12]
  % House Fly Mortality at 4 h: 42.5%
  % House Fly Mortality at 8 h: 99.2%
  % House Fly Mortality at 24 h: 100%
  % House Fly Mortality at 48 h: 100%
House flies; [13]
  % House Fly Mortality at 4 h: 1.3%
  % House Fly Mortality at 8 h: 5.9%
  % House Fly Mortality at 24 h: 83.7%
  % House Fly Mortality at 48 h: 98.8%
House flies; [14]
  % House Fly Mortality at 4 h: 0.6%
  % House Fly Mortality at 8 h: 39.4%
  % House Fly Mortality at 24 h: 100%
  % House Fly Mortality at 48 h: 100%
House flies; at one half the application rate, sheet metal and unpainted concrete panels
  activity compared to Elector: equivalent or superior to Elector
House flies; unpainted plywood
  initial activity compared to Elector: equivalent initial activity
  residual activity compared to Elector: marginally inferior residual activity
[1]
  topical activity against tick nymphs compared to spinosad: equivalent to that of spinosad
[2]; cattle, whole-body spray 0.5 g AI per animal, Day 1, 2 hr
  percent tick reduction, 2 hr: 0%
[2]; cattle, whole-body spray 0.5 g AI per animal, Day 1, 6 hr
  percent tick reduction, 6 hr: 0%
[2]; cattle, whole-body spray 0.5 g AI per animal, Day 1, 10 hr
  percent tick reduction, 10 hr: 0%
[2]; cattle, whole-body spray 0.5 g AI per animal, Day 2, 24 hr
  percent tick reduction, 24 hr: 0%
[2]; cattle, whole-body spray 0.5 g AI per animal, Day 3, 48 hr
  percent tick reduction, 48 hr: 8.14%
[2]; cattle, whole-body spray 0.5 g AI per animal, Day 4, 72 hr
  percent tick reduction, 72 hr: 8.14%
[2]; cattle, whole-body spray 0.5 g AI per animal, Day 7, 144 hr
  percent tick reduction, 144 hr: 46.67%
[2]; speed of kill, adult lone star ticks on cattle, 0.5 g AI per animal
  ET50: 148.2 h
[2]; topically to cattle at 0.5 g/animal
  activity (potency and speed of kill) compared to Elector: equivalent activity
